Where a name gives a salt, the structure may show the parent alone. Read-outs that look alike come from different tables or passages of the source.
Tests used:
[1] = target: T1, Poly(ADP-ribose) synthetase (Bos taurus, UniProt P18493); assay: Inhibition of Poly(ADP-ribose) synthetase; format: biochemical, calf
T1 construct: Poly (ADP-ribose) synthetase from calf thymus; from tissue; host or cells: calf thymus
Protocol: The enzyme assay is performed by placing the following in small glass tubes kept at 4°: 100 μl of buffer consisting of 0.5M Tris-HCl pH 8.0, 50 mM MgCl2, and 5 mM dithiothreitol; 50 μl of 1 mM [^3 H]nicotinamide adenine dinucleotide having a specific activity of 15 μCi/μmol; 100 μl of calf thymus DNA (0.3 mg/ml in water); 50 μl of calf thymus histone (Sigma, Type IIA, 0.5 mg/ml); 50 μl of inhibitor or inhibitor solvent; 150 μl of enzyme. The components are thoroughly mixed and warmed to 30° C. in a water bath. After 15 minutes the reaction is stopped by adding 2 ml of ice cold 15% trichloroacetic acid and the tubes are placed on ice for 15 minutes. The precipitate is collected on glass fiber filters and washed five times with ice cold 15% trichloroacetic acid. The filters were dried and radioactivity determined in a liquid scintillation counter.

KHT fibrosarcoma tumors = assay: In vivo assay for radiosensitization activity; design: species or system hybrid mice (B6C3F1); details: KHT tumors in mice, relative to misonidazole
Protocol: In Vivo Assay for Radiosensitization Activity
For this assay KHT fibrosarcoma tumors in hybrid mice (B6C3F1) weighing 20-25 g are used. The mice are randomized and implanted SC with the appropriate tumor brei on Day 0 (one implant/mouse). Samples from each donor tumor and/or from the final brei are incubated in thioglycolate media as a check for gross bacterial contamination. On Day 8 tumors are measured in two dimensions with calipers and animals with tumor masses in the range of 500 to 700 mg are selected for the assay. At this point the tumors contain approximately 20% hypoxic cells.
The test agents are dissolved in any of several vehicles at a fixed injection dose equal to 90-100% of the maximum tolerated dose. Additional suitable controls of test compound (no irradiation) and vehicle-injected and irradiated mice are also included. Mice are irradiated at a dose of 1700 RADs at various intervals both prior to and after intraperitoneal administration of the test agents.
By using these intervals, an indication of both the optimum time to irradiate and the degree of sensitization are obtained. Irradiation of the KHT tumors is by whole body irradiation of animals in movement restricting jigs at different total exposures as indicated. The x-ray source is a Phillips 320 KV instrument with a half-value thickness of 2.0 mm copper and a target to source distance of 17 inches, with a delivery rate of 2.0 Gy/minute. Animals are monitored for signs of acute toxicity after treatment.
After incubation for 12-16 days at 37° and staining, the colonies are counted. The data are expressed as % control versus time.

L1210 cells = assay: Inhibition of the repair of radiation-induced DNA damage as assessed by alkaline elution; format: cell-based; details: L1210 cells, 10 Gy x-rays, class symbols
Protocol: Inhibition of the Repair of Radiation-Induced DNA Damage as Assessed by Alkaline Elution The basic alkaline elution assay is carried out according to the procedure of K. W. Kohn, […]. Erickson, and L. A. Zwelling in DNA Repair: A Laboratory Manual of Research Procedures (eds. E. C. Freidburg and […]) with slight modifications. Briefly, suspension cultures of exponentially growing L1210 cells (total of 4×10^6 cells) are labeled with 0.02 μCi/ml of [^14 C] thymidine plus 1 nmol/ml of unlabeled thymidine for 24 hours prior to use. L1210 cells used as an internal standard are grown in media supplemented with 0.1 μCi/ml of [^3 H]thymidine and 1 nmol/ml unlabeled thymidine. For the elution protocol cells are removed from the culture flasks, centrifuged, and resuspended in fresh media. Drug treatment for experimental cells is for one hour at 37°. After the treatment period control and drug-treated cells are given a dose of 10 Gy of x-rays and incubated at 37° C. for 10 minutes to allow for repair. Samples consisting of 5×10^5 cells contained in 5 ml of ice cold PBS are deposited directly on 25 mm polycarbonate filters (2 micron pore size). The cells are washed with 5 ml of cold PBS, then lysed by the addition of 5 ml of lysis solution (0.2% SDS, 0.25M tetrasodium EDTA pH 9.7). All procedures commencing at the time of lysis are carried out in the dark. Subsequent to lysis samples are treated with 2 ml of lysis solution containing proteinase-K (0.5 mg/ml) for one hour. The filters are then eluted with tetrapropyl ammonium hydroxide/0.025M EDTA (free acid form)/0.1% SDS, pH 12.1, at a constant flow rate of 0.037 ml/min. Fractions of 2 ml are collected in scintillation vials. […] To each fraction collected and the filter solution 15 ml of modified Ready-Gel scintillation fluid containing 0.7% acetic acid is added. The frequency of single-stranded DNA breakage was calculated as described by Kohn, et al. The data is corrected for the number of single-strand breaks in the […] samples (~20%).

V79 cells = assay: In vitro radiosensitizing activity at 37°: shoulder modifying effects (reduction in Dq); format: cell-based; details: hypoxic V79 cells, class symbols
Protocol: The shoulder region represents the inherent repair capabilities of a given cell line. […] To determine the hypoxic x-ray dose response, cells are rendered hypoxic four hours prior to the addition of the test compound by placing them in a 37° C. incubator within an anaerobic glove chamber (Forma). […] Drug is added (0.1 ml into 2 ml media in petri dish) within the anaerobic chamber and drug treatment is at the highest nontoxic dose for one hour at 37°. The oxic x-ray dose response is determined in a similar manner except that all manipulations are carried out in air. […] Cytotoxicity controls (drug only, no irradiation) are included as well as oxic and hypoxic untreated controls (irradiation only, no drug). Immediately following irradiation, cells are rinsed twice with 2 ml fresh media prior to the addition of 5 ml of fresh media. The cells are then incubated at 37° C. After six days, dishes are stained with crystal violet and colonies of 50 or more cells are counted to determine percent surviving cells versus x-ray dose. […] This is expressed by percent reduction in Dq where Dq is defined as the dose at the intersection of the regression line for the logarithmic portion of the survival curve with the 100% survival level. This is taken to represent the width of the shoulder region of the survival curve.

[2] = 30° C., 15 minutes, [3H]NAD, read-out: IC50

T1 sequence (P18493 whole entry): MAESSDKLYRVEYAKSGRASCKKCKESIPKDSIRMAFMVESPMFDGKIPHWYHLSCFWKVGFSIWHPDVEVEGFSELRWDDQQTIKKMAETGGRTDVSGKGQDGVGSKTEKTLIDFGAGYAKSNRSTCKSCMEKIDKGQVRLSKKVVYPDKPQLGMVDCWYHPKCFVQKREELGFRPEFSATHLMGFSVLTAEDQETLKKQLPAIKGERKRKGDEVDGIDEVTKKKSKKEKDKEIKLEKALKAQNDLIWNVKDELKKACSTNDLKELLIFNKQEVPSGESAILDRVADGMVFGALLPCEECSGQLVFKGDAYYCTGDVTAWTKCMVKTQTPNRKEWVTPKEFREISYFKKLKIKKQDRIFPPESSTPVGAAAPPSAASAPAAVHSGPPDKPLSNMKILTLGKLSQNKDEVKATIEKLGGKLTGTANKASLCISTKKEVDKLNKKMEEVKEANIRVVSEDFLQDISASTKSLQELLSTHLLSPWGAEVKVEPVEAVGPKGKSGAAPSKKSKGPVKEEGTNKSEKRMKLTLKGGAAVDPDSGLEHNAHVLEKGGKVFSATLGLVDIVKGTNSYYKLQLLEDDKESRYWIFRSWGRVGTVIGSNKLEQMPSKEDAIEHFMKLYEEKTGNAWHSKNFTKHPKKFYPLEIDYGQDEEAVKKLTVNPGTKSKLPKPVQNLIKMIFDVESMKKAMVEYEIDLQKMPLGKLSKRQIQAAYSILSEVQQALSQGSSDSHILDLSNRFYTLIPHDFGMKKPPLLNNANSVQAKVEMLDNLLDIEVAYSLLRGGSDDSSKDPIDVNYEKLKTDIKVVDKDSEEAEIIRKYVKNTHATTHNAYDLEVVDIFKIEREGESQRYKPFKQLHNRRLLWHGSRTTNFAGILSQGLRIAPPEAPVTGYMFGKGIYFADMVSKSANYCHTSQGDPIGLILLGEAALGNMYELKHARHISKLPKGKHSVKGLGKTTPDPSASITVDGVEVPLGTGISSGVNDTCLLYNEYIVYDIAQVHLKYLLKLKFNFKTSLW

With `Oc1cccc2c(O)nccc12` [Example I, 1,5-Dihydroxyisoquinoline] the IC50 [1, 2] was 140 nM, the “In Vivo Radiosensitizing Activity” value (KHT fibrosarcoma tumors) was “+” and the “Frequency of Unrepaired Strand Breaks” value (L1210 cells) was “+ (101-200)”. For the same compound, the “Shoulder Modification (% Reduction in DQ)” value (V79 cells) was “- (1-14%)”.
With `O=C1NCCc2c(O)cccc21` [Example II, 3,4-Dihydro-5-hydroxy-1(2H)-isoquinolinone] the IC50 [1, 2] was 100 nM, the “In Vivo Radiosensitizing Activity” value (KHT fibrosarcoma tumors) was “+” and the “Frequency of Unrepaired Strand Breaks” value (L1210 cells) was “++ (201-300)”. The “Shoulder Modification (% Reduction in DQ)” value (V79 cells) was “+ (15-29%)”.
With `O=C1NCCc2c(OCC(O)CN3CCCCC3)cccc21` (stereo not drawn) [Example IV, 3,4-Dihydro-5-[2-hydroxy-3-(1-piperidinyl)propoxy]-1(2H)-isoquinolinone] the IC50 [1, 2] was 320 nM and the “Shoulder Modification (% Reduction in DQ)” value (V79 cells) was “+++ (≥45%)”.
In the case of `COc1cccc2c1CCNC2=O` [Example V, 3,4-Dihydro-5-methoxy-1(2H)-isoquinolinone], the IC50 [1, 2] is reported as 420 nM.
With `CC(=O)Oc1cccc2c1CCNC2=O` [Example VI, 5-(Acetyloxy)-3,4-dihydro-1(2H)-isoquinolinone] the IC50 [1, 2] was 2110 nM.
With `O=C1NCCc2c(OCc3ccccc3)cccc21` [Example VII, 3,4-Dihydro-5-(phenylmethoxy)-1(2H)-isoquinolinone] the IC50 [1, 2] was 5200 nM.
For `Nc1cccc2c(=O)[nH]ccc12` [Example VIII, 5-Amino-1(2H)-isoquinolinone], the IC50 [1, 2] was 240 nM and the “Shoulder Modification (% Reduction in DQ)” value (V79 cells) was “- (1-14%)”.
`O=C1NCCc2c(NCc3ccccc3)cccc21` [Example X, 3,4-Dihydro-5-[(phenylmethyl)amino]-1(2H)-isoquinolinone] gave an IC50 [1, 2] of 2550 nM.
`CC(=O)Nc1cccc2c1CCNC2=O` [Example XI, N-(1,2,3,4-Tetrahydro-1-oxo-5-isoquinolinyl)acetamide] gave an IC50 [1, 2] of 56700 nM.
Compound `O=C1NCCc2c(OCC(O)Cc3ccccc3)cccc21` (stereo not drawn) [Example XL, 3,4-Dihydro-5-(2-hydroxy-3-phenylpropoxy)-1(2H)-isoquinolinone] has an IC50 [1, 2] of 340 nM.
For `COc1cccc2c(=O)[nH]c(-c3ccccc3)cc12` [Example XX, 5-Methoxy-3-phenyl-1(2H)-isoquinolinone], the IC50 [1, 2] was 2120 nM.
In the case of `Nc1c[nH]c(=O)c2ccccc12` [Example XXV, 4-Amino-1(2H)-isoquinolinone monohydrochloride], the IC50 [1, 2] is reported as 660 nM.
With `O=c1[nH]cc(Br)c2c(O)cccc12` [Example XXVI, 4-Bromo-5-hydroxy-1(2H)-isoquinolinone] the IC50 [1, 2] was 61 nM.
`O=C1NCCc2c(OCCCN3CCCCC3)cccc21` [Example XXVII, 3,4-Dihydro-5-[3-(1-piperidinyl)propoxy]-1(2H)-isoquinolinone] showed an IC50 [1, 2] of 830 nM.
`Cl.Nc1cccc2c1CCNC2=O` [IX, 5-Amino-3,4-dihydro-1(2H)-isoquinolinone, monohydrochloride] was tested, and the IC50 [1, 2] was 410 nM, the “Frequency of Unrepaired Strand Breaks” value (L1210 cells) was “+++ (301-400)” and the “Shoulder Modification (% Reduction in DQ)” value (V79 cells) was “- (1-14%)”.
`O=C1NCCc2c(OC[C@@H](O)CN3CCCCC3)cccc21` [L, (S)-3,4-Dihydro-5-[2-hydroxy-3-(1-piperidinyl)propoxy]-1(2H)-isoquinolinone] gave an IC50 [1, 2] of 270 nM.
Compound `CN(C)COc1cccc2c1CCNC2=O` [XIII] has an IC50 [1, 2] of 970 nM.
`COc1cccc2c(=O)[nH]ccc12` [XIV, 5-Methoxy-1(2H)-isoquinolinone] gave an IC50 [1, 2] of 580 nM.
With `CSC1=NCCc2c(C)cccc21` [XIX, 3,4-Dihydro-5-methyl-1-(methylthio)-isoquinoline] the IC50 [1, 2] was 1550 nM.
`O=C1NCCc2c(OCCc3ccccc3)cccc21` [XLI, 3,4-Dihydro-5-(phenylethoxy)-1(2H)-isoquinolinone] was tested, and the IC50 [1, 2] was 600 nM.
Compound `COc1cccc2c(=O)[nH]nc(C)c12` [XLII, 5-Methoxy-4-methyl-1(2H)phthalazinone] has an IC50 [1, 2] of 80 nM.
With `O=C1NCCc2c(OC[C@H](O)CN3CCCCC3)cccc21` [XLIX, (R)-3,4-Dihydro-5-[2-hydroxy-3-(1-piperidinyl)propoxy]-1(2H)-isoquinolinone] the IC50 [1, 2] was 330 nM.
With `CCc1cccc2c1CCNC2=O` [XV, 5-Ethyl-3,4-dihydro-1(2H)-isoquinolinone] the IC50 [1, 2] was 1000 nM, the “Frequency of Unrepaired Strand Breaks” value (L1210 cells) was “+ (101-200)” and the “Shoulder Modification (% Reduction in DQ)” value (V79 cells) was “- (1-14%)”.
For `O=C1NCCc2c(Cl)cccc21` [XVI, 5-Chloro-3,4-dihydro-1(2H)-isoquinolinone], the IC50 [1, 2] was 310 nM.
In the case of `COc1cccc2c1CCN=C2SC` [XVII, 3,4-Dihydro-5-methoxy-1-(methylthio)-isoquinoline], the IC50 [1, 2] is reported as 580 nM.
For `Cc1cccc2c1CC(C)NC2=O` (stereo not drawn) [XVIII, 3,4-Dihydro-3,5-dimethyl-1(2H)-isoquinolinone], the IC50 [1, 2] was 740 nM.
`Oc1ncc(Br)c2ccccc12` [XXIII, 4-Bromo-1-isoquinolinol] showed an IC50 [1, 2] of 360 nM.
`O=C1NCCc2c(OCC(O)CN3CCOCC3)cccc21` (stereo not drawn) [XXIX] gave an IC50 [1, 2] of 1500 nM.
With `O=C1NCCc2c(OCC(O)CN3CCCC3)cccc21` (stereo not drawn) [XXVIII, 3,4-Dihydro-5-[2-hydroxy-3-(1-pyrrolidinyl)propoxy]-1-(2H)-isoquinolinone] the IC50 [1, 2] was 770 nM.
For `CNCC(O)COc1cccc2c1CCNC2=O` (stereo not drawn) [XXXI, 3,4-Dihydro-5-[2-hydroxy-3-(methylamino)propoxy]-1(2H)-isoquinolinone], the IC50 [1, 2] was 200 nM.
Work on `CNCCCOc1cccc2c1CCNC2=O` [XXXII, 3,4-Dihydro-5-[3-methylamino)propoxy]-1(2H)-isoquinolinone hydrochloride] yielded an IC50 [1, 2] of 330 nM.
`O=C1NCCc2c(OCCN3CCCCC3)cccc21` [XXXIII, 3,4-Dihydro-5-[2-(1-piperidinyl)ethoxy]-1(2H)-isoquinolinone] gave an IC50 [1, 2] of 820 nM.
Compound `O=C1NCCc2c(OCCCCN3CCCCC3)cccc21` [XXXIV, 3,4-Dihydro-5-[4-(1-piperidinyl)butoxy]-1(2H)-isoquinolinone] has an IC50 [1] of 800 nM.
For `O=C1NCCc2c(OCC(O)COc3ccccc3)cccc21` (stereo not drawn) [XXXIX, 3,4-Dihydro-5-(2-hydroxy-3-phenoxypropoxy)-1(2H)-isoquinolinone], the IC50 [1, 2] was 650 nM.
`CCOc1cccc2c1CCNC2=O` [XXXV, 5-Ethoxy-3,4-dihydro-1(2H)-isoquinolinone] gave an IC50 [1, 2] of 2600 nM.
For `CCCOc1cccc2c1CCNC2=O` [XXXVI, 3,4-Dihydro-5-propoxy-1(2H)-isoquinolinone], the IC50 [1, 2] was 110 nM.
Compound `CCCCOc1cccc2c1CCNC2=O` [XXXVII, 5-Butoxy-3,4-dihydro-1(2H)-isoquinolinone] has an IC50 [1, 2] of 6000 nM.
Work on `COCC(O)COc1cccc2c1CCNC2=O` (stereo not drawn) [XXXVIII, 3,4-Dihydro-5-(2-hydroxy-3-methoxypropoxy)-1(2H)-isoquinolinone] yielded an IC50 [1, 2] of 1500 nM.
`CCN(CC)CC(O)COc1cccc2c1CCNC2=O` (stereo not drawn) [XXX] showed an IC50 [1, 2] of 1000 nM.

Reference: patent US5177075A, “Substituted dihydroisoquinolinones and related compounds as potentiators of the lethal effects of radiation and certain chemotherapeutic agents; selected compounds, analogs and process” (priority 1991, dated 1993)
